Patent publication US20230125810A1, “DESIGNED BACTERIAL COMPOSITIONS AND USES THEREOF” (Seres Therapeutics, Inc., priority 2019, published 2023)
Read-outs that look alike come from different tables or passages of the source.

Experiments:
[1] = system: primary human colon epithelial cell monolayer; assay: Primary epithelial cell monolayer barrier integrity assay (IFN-γ, FITC-dextran); settings: 5 mM
Description: The assays were performed using a primary epithelial cell monolayer barrier integrity assay. […] The addition of interferon-gamma (IFN-γ) disrupts the tight junctions of the epithelial monolayer and induces apoptosis of epithelial cells. The leakiness of the membrane can be assessed by adding FITC-dextran to the apical side of the apparatus and measuring how rapidly it can pass to the basolateral compartment. A leaky monolayer will allow FITC-dextran to the basal side of the apparatus more quickly than a monolayer with an intact monolayer.
Briefly, the barrier integrity assay was conducted as follows. Primary human colon organoid cultures established from isolated colon crypts were grown and expanded in Matrigel® (Corning) and 50% L-cell conditioned medium containing Wnt3a, R-spondin 3 and Noggin (L-WRN) as described by VanDussen et al. containing 10 uM Y-27632 and 10 uM SB43152 (Gut 64:911-920, 2015). […] After the 48-hour incubation, colonic epithelial monolayer permeability was assessed by adding 10 μL of 10 ng/ml FITC-Dextran (4 kDa, Sigma) to the apical interface, the organoids were incubated for 1 hour and then 100 μL of medium was collected from the basolateral compartment of each transwell and transferred to a 96 well plate for fluorescence detection.

[2] = system: AhR-mediated cyp1a1 expression; assay: AhR-mediated cyp1a1 expression in epithelial colonic organoids
Description: In FIG. 7A, the metabolites (3-indole acetic acid, 3-methylindole, indole, indoleacrylate, 3-indole butyric acid, and indolepropionic acid, IPA) were added at three different concentrations (50, 100, and 200 μM), with increasing concentrations from right to left. Untreated epithelial organoids (Untd) were used as a negative control. In FIG. 7B, supernatants were collected from cultures containing different bacteria (Clostridium sporogenes 1, Clostridium sporogenes 2, Peptostreptococcus stomatis, Clostridium glycolicum, Bacteroides sp. 4 1 36) and were provided to the epithelial organoids at two different concentrations (5% and 2% final concentration), with the left bar corresponding to the higher concentration. The SCFAs and tryptophan metabolites present in each supernatant (from FIGS. 17 and 18) are indicated. IPA: indolepropionic acid; IAcryl: Indole acrylate; 3Mind: 3-methylindole; I3Carb: indole-3-carbinol; C3: propionate; C4: butyrate; C5: valerate; C6: hexanoate; BCFA: branch chain fatty acids.
AhR activation is reportedly associated with strengthening of the intestinal epithelial barrier and mucosal homeostasis in the intestine by inducing broad changes in gene expression. […] An increase in Cyp1a1 expression is considered to be a specific measure of AhR-mediated gene expression.

[3] = system: TNF-α-driven IL-8 secretion by HT29 epithelial cells; assay: Anti-inflammatory assay in IECs (TNF-α-driven IL-8 secretion); type: cell-based, human; settings: 1 hour pre-treatment
[4] = system: HDAC enzymes (HeLa nuclear extract); assay: HDAC inhibition assay (HDAC-Glo I/II, HeLa nuclear extract); type: biochemical; settings: for HDAC Inhibition in any C source (25/18% cutoff): single strain supernatants, PY medium with one of seven C sources
[5] = GC-MS of SCFAs, MCFAs, BCFAs and tryptophan metabolites in bacterial supernatants; settings: single strain supernatants
From the text: FIG. 18 provides a table listing bacterial species and the short chain fatty acids (SCFAs), medium chain fatty acids (MCFAs), and branched chain fatty acids (BCFAs) produced by each of the species. […] The limit of detection for each of the fatty acids is provided in the row labeled “Limit of Detection (LOD).” The SCFAs measured included: acetic acid, propanoic acid, and butanoic acid. The MCFAs measured included: pentanoic acid, hexanoic acid, heptanoic acid. The BCFAs measured included: 2-methyl-propanopic acid, 3-methyl-butanoic acid, and 4-methyl-pentaoic acid.
FIG. 19 provides a table listing bacterial species and tryptophan metabolites produced by the species. […] The limit of detection for each of the fatty acids is provided in the row labeled “Limit of Detection (LOD).” The tryptophan metabolites measured included: indole, 3-methylindole, indol-3-propanoic acid, indole-3-butyric acid, 3-indoleacrylic acid, tryptamine, indole-3-acetic acid, 3-indole-glycoxylic acid, 2-picolinic acid, and 5-hydroxytryptamine.
As described supra, certain tryptophan (Trp) metabolites were associated with remission in patients treated with an HHSP. […] The presence of the tryptophan metabolites was determined using a colorimetric assay for detection of indolic compounds (Indole Reagent, Anaerob Systems). […]

[6] = system: clinical remission of ulcerative colitis; type: in vivo, human; settings: UC patients treated with HHSP
[7] = intestinal epithelial organoids

Compound	HDAC cluster assignment [4]	HDAC Inhibition in any C source (25/18% cutoff) [4]	also measured
CCCC(=O)O [butyrate]	–	–	decrease of permeability [1]: 50%
O=C(O)Cc1c[nH]c2ccccc12 [3-indole acetic acid]	–	–	AhR-mediated cyp1a1 expression [2, 7]: induced AhR-mediated cyp1a1 expression
CCC(=O)O [propionate]	–	–	TNF-α-dependent IL-8 secretion by IECs [3]: reduced levels of TNF-α-dependent IL-8 secretion
Cc1c[nH]c2ccccc12 [3-methylindole]	–	–	AhR-mediated cyp1a1 expression ([2]; human): induced AhR-mediated cyp1a1 expression
CC(=O)O [acetate]	–	–	TNF-α-dependent IL-8 secretion by IECs [3]: reduced levels of TNF-α-dependent IL-8 secretion
O=C(O)/C=C/c1c[nH]c2ccccc12 [indoleacrylate]	–	–	AhR-mediated cyp1a1 expression [2, 7]: induced AhR-mediated cyp1a1 expression
c1ccc2[nH]ccc2c1 [indole]	–	–	AhR-mediated cyp1a1 expression [2, 7]: induced AhR-mediated cyp1a1 expression
Parabacteroides distasonis	3	1 (If a strain exhibits HDACi activity of at least 0.25 in any nutrient, or 0.18 in fucose, it is considered to have HDACi activity and it is marked with “1”)	–
Clostridium clostridioforme	6	1 (If a strain exhibits HDACi activity of at least 0.25 in any nutrient, or 0.18 in fucose, it is considered to have HDACi activity and it is marked with “1”)	–
Clostridium glycolicum	–	–	hexanoate production [5]: Hexanoate producing
Clostridium disporicum	0	1 (If a strain exhibits HDACi activity of at least 0.25 in any nutrient, or 0.18 in fucose, it is considered to have HDACi activity and it is marked with “1”)	–
Clostridium symbiosum	–	–	Associated Clinical Outcome [6]: Remitter
Clostridium sp 7 2 43FAA	–	1 (If a strain exhibits HDACi activity of at least 0.25 in any nutrient, or 0.18 in fucose, it is considered to have HDACi activity and it is marked with “1”)	HDAC cluster assignment ([4]; pattern of HDAC inhibition across nutrient sources): 5
Clostridium bolteae	–	–	Associated Clinical Outcome [6]: Remitter
Clostridium mayombei	2	1 (If a strain exhibits HDACi activity of at least 0.25 in any nutrient, or 0.18 in fucose, it is considered to have HDACi activity and it is marked with “1”)	–
Clostridium tertium	5	1 (If a strain exhibits HDACi activity of at least 0.25 in any nutrient, or 0.18 in fucose, it is considered to have HDACi activity and it is marked with “1”)	–
